Laboratory results taken from patent US12358897B2, “Compounds and method of treating COVID-19” (Pfizer Inc., priority 2020, dated 2025).

How the values were obtained:
[1] = target: T1, full-length SARS-CoV-2 3CL protease (Severe acute respiratory syndrome coronavirus 2, UniProt P0DTD1); experiment: SARS-CoV-2 Coronavirus 3C Protease FRET Assay (Dabcyl-KTSAVLQ-SGFRKME-Edans substrate); type: biochemical; details: 15 nM enzyme, 25 μM peptide substrate, 60 minutes at 23° C.; Morrison equation fit; read-out: Geometric Mean Ki
T1 construct: measures the activity of full-length SARS-CoV-2 3CL protease

[2] = test system: SARS-CoV-2 (USA_WA1/2020) in VeroE6 cells enriched for hACE2 expression; experiment: microbe, parasite or virus in culture; type: cell-based; details: Severe acute respiratory syndrome coronavirus 2, Vero C1008, 72 h, read-out: Geometric Mean EC50

COc1cccc2[nH]c(C(=O)N[C@@H](CC(C)C)C(=O)N[C@@H](C[C@@H]3CCNC3=O)C(=O)COC(=O)C(C)C)cc12 [Example 10, (3S)-3-({N-[(4-methoxy-1H-indol-2-yl)carbonyl]-L-leucyl}amino)-2-oxo-4-[(3S)-2-oxopyrrolidin-3-yl]butyl 2-methylpropanoate]
Ki [1]: 63.7 nM | EC50 [2]: 205 nM

COc1cccc2[nH]c(C(=O)N[C@@H](CC(C)C)C(=O)N[C@@H](C[C@@H]3CCNC3=O)C(=O)COC(=O)c3c(C)nc(C)nc3C)cc12 [Example 70, (3S)-3-({N-[(4-methoxy-1H-indol-2-yl)carbonyl]-L-leucyl}amino)-2-oxo-4-[(3S)-2-oxopyrrolidin-3-yl]butyl 2,4,6-trimethylpyrimidine-5-carboxylate]
Ki [1]: 5.89 nM | EC50 [2]: 4800 nM

COc1cccc2[nH]c(C(=O)N[C@@H](CC(C)C)C(=O)N[C@@H](C[C@@H]3CCNC3=O)C(=O)COC(=O)c3c(C)ncnc3C)cc12 [Example 71, (3S)-3-({N-[(4-methoxy-1H-indol-2-yl)carbonyl]-L-leucyl}amino)-2-oxo-4-[(3S)-2-oxopyrrolidin-3-yl]butyl 4,6-di methylpyrimidine-5-carboxylate]
Ki [1]: 0.928 nM | EC50 [2]: 315 nM

COc1cccc2[nH]c(C(=O)N[C@@H](CC(C)C)C(=O)N[C@@H](C[C@@H]3CCNC3=O)C(=O)COC(=O)c3c(C)cc(C#N)cc3C)cc12 [Example 65, (3S)-3-({N-[(4-methoxy-1H-indol-2-yl)carbonyl]-L-leucyl}amino)-2-oxo-4-[(3S)-2-oxopyrrolidin-3-yl]butyl 4-cyano-2,6-dimethylbenzoate]
Ki [1]: 7.67 nM | EC50 [2]: 51.3 nM

COc1cccc2[nH]c(C(=O)N[C@@H](CC(C)C)C(=O)N[C@@H](C[C@@H]3CCNC3=O)C(=O)COC(=O)c3ccccc3CN(C)C)cc12 [Example 53, (3S)-3-({N-[(4-methoxy-1H-indol-2-yl)carbonyl]-L-leucyl}amino)-2-oxo-4-[(3S)-2-oxopyrrolidin-3-yl]butyl 2-[(dimethylamino)methyl]benzoate]
Ki [1]: 14 nM | EC50 [2]: 538 nM

COc1cccc2[nH]c(C(=O)N[C@@H](CC(C)C)C(=O)N[C@@H](C[C@@H]3CCNC3=O)C(=O)COC(=O)c3c(C)cccc3Cl)cc12 [Example 67, (3S)-3-({N-[(4-methoxy-1H-indol-2-yl)carbonyl]-L-leucyl}amino)-2-oxo-4-[(3S)-2-oxopyrrolidin-3-yl]butyl 2-chloro-6-methyl benzoate]
Ki [1]: 8.82 nM | EC50 [2]: 163 nM

COc1cccc2[nH]c(C(=O)N[C@@H](CC(C)C)C(=O)N[C@@H](C[C@@H]3CCNC3=O)C(=O)COC(=O)c3cn(C)cn3)cc12 [Example 51, (3S)-3-({N-[(4-methoxy-1H-indol-2-yl)carbonyl]-L-leucyl}amino)-2-oxo-4-[(3S)-2-oxopyrrolidin-3-yl]butyl 1-methyl-1H-imidazole-4-carboxylate]
Ki [1]: 152 nM

COc1cccc2[nH]c(C(=O)N[C@@H](CC(C)C)C(=O)N[C@@H](C[C@@H]3CCNC3=O)C(=O)COC(=O)C3CCCCC3)cc12 [Example 12, (3S)-3-({N-[(4-methoxy-1H-indol-2-yl)carbonyl]-L-leucyl}amino)-2-oxo-4-[(3S)-2-oxopyrrolidin-3-yl]butyl cyclohexanecarboxylate]
Ki [1]: 73.8 nM | EC50 [2]: 109 nM

COc1cccc2[nH]c(C(=O)N[C@@H](CC(C)C)C(=O)N[C@@H](C[C@@H]3CCNC3=O)C(=O)COC(=O)C3(C)CCCCC3)cc12 [Example 13, (3S)-3-({N-[(4-methoxy-1H-indol-2-yl)carbonyl]-L-leucyl}amino)-2-oxo-4-[(3S)-2-oxopyrrolidin-3-yl]butyl 1-methylcyclohexanecarboxylate]
Ki [1]: 139 nM

COc1cccc2[nH]c(C(=O)N[C@@H](CC(C)C)C(=O)N[C@@H](C[C@@H]3CCNC3=O)C(=O)COC(=O)c3c(C)nc(C4CCOCC4)nc3C)cc12 [Example 75, (3S)-3-({N-[(4-methoxy-1H-indol-2-yl)carbonyl]-L-leucyl}amino)-2-oxo-4-[(3S)-2-oxopyrrolidin-3-yl]butyl 4,6-di methyl-2-(tetrahydro-2H-pyran-4-yl)pyrimidine-5-carboxylate]
Ki [1]: 5.5 nM

COc1cccc2[nH]c(C(=O)N[C@@H](CC(C)C)C(=O)N[C@@H](C[C@@H]3CCNC3=O)C(=O)COC(=O)c3ccccn3)cc12 [Example 35, (3S)-3-({N-[(4-methoxy-1H-indol-2-yl)carbonyl]-L-leucyl}amino)-2-oxo-4-[(3S)-2-oxopyrrolidin-3-yl]butyl pyridine-2-carboxylate]
Ki [1]: 4.43 nM

COc1cccc2[nH]c(C(=O)N[C@@H](CC(C)C)C(=O)N[C@@H](C[C@@H]3CCNC3=O)C(=O)COC(=O)[C@H]3CCCN3C)cc12 [Example 27, (3S)-3-({N-[(4-methoxy-1H-indol-2-yl)carbonyl]-L-leucyl}amino)-2-oxo-4-[(3S)-2-oxopyrrolidin-3-yl]butyl 1-methyl-D-prolinate]
Ki [1]: 0.0321 nM

COc1cccc2[nH]c(C(=O)N[C@@H](CC(C)C)C(=O)N[C@@H](C[C@@H]3CCNC3=O)C(=O)COC(=O)c3cnn(C)c3)cc12 [Example 44, (3S)-3-({N-[(4-methoxy-1H-indol-2-yl)carbonyl]-L-leucyl}amino)-2-oxo-4-[(3S)-2-oxopyrrolidin-3-yl]butyl 1-methyl-1H-pyrazole-4-carboxylate]
Ki [1]: 90.6 nM

COc1cccc2[nH]c(C(=O)N[C@@H](CC(C)C)C(=O)N[C@@H](C[C@@H]3CCNC3=O)C(=O)COC(=O)C3(C)CCN(C)CC3)cc12 [Example 17, (3S)-3-({N-[(4-methoxy-1H-indol-2-yl)carbonyl]-L-leucyl}amino)-2-oxo-4-[(3S)-2-oxopyrrolidin-3-yl]butyl 1,4-dimethylpiperidine-4-carboxylate]
Ki [1]: 17.5 nM

COc1cccc2[nH]c(C(=O)N[C@@H](CC(C)C)C(=O)N[C@@H](C[C@@H]3CCNC3=O)C(=O)COC(=O)c3c(C)cccc3F)cc12 [Example 72, (3S)-3-({N-[(4-methoxy-1H-indol-2-yl)carbonyl]-L-leucyl}amino)-2-oxo-4-[(3S)-2-oxopyrrolidin-3-yl]butyl 2-fluoro-6-methylbenzoate]
Ki [1]: 8.91 nM

COc1cccc2[nH]c(C(=O)N[C@@H](CC(C)C)C(=O)N[C@@H](C[C@@H]3CCNC3=O)C(=O)COC(=O)C3(C)CCC3)cc12 [Example 14, (3S)-3-({N-[(4-methoxy-1H-indol-2-yl)carbonyl]-L-leucyl}amino)-2-oxo-4-[(3S)-2-oxopyrrolidin-3-yl]butyl 1-methylcyclobutanecarboxylate]
Ki [1]: 348 nM | EC50 [2]: 505 nM

COc1cc(C)c(C(=O)OCC(=O)[C@H](C[C@@H]2CCNC2=O)NC(=O)[C@H](CC(C)C)NC(=O)c2cc3c(OC)cccc3[nH]2)c(C)c1 [Example 73, (3S)-3-({N-[(4-methoxy-1H-indol-2-yl)carbonyl]-L-leucyl}amino)-2-oxo-4-[(3S)-2-oxopyrrolidin-3-yl]butyl 4-methoxy-2,6-dimethyl benzoate]
Ki [1]: 117 nM

COc1cccc2[nH]c(C(=O)N[C@@H](CC(C)C)C(=O)N[C@@H](C[C@@H]3CCNC3=O)C(=O)COC(=O)c3ncn(C)c3C)cc12 [Example 40, (3S)-3-({N-[(4-methoxy-1H-indol-2-yl)carbonyl]-L-leucyl}amino)-2-oxo-4-[(3S)-2-oxopyrrolidin-3-yl]butyl 1,5-dimethyl-1H-imidazole-4-carboxylate]
Ki [1]: 306 nM
